Counter-ions that a name gives are not always drawn.
Experiments:
[1] = molecular target: TEM-1 (Class A beta-lactamase) (Escherichia coli, UniProt P62593); assay: Inhibition of beta-lactamase enzymes (nitrocefin hydrolysis), TEM-1; format: biochemical; conditions: read-out: Class A TEM-1 60 min IC50, nitrocefin 100 μM
Experimental: (§1) A buffer consisting of 0.1 M sodium phosphate (pH 7.0), 10 mM NaHCO3, and 0.005% Triton X-100 was used for all enzymes. The chromogenic substrate nitrocefin (SynGene, Bangalore, India) was used at 100 μM. Enzyme activity was monitored by the 490 nm absorbance increase upon nitrocefin hydrolysis. Assays were performed in clear polystyrene 384-well plates (Greiner Bio-One, Monroe, N.C.). Absorbance was measured for 1 hour at 30-s intervals using a Spectramax absorbance plate reader (Molecular Devices, Sunnyvale, Calif.). Measurement of beta-lactamase inhibition by INHIBITOR employed serial 3-fold dilutions of the inhibitor in assay buffer, ranging from 100 μM to 62.7 pM. A background absorbance progress curve for a control lacking enzyme and inhibitor was subtracted from each progress curve.
(§2) The complete set of progress curves for one enzyme with all inhibitor concentrations was subjected to numerical integration with the program Kintek Global Kinetic Explorer (Kintek Corp, Snowshoe Pa.) to obtain a best-fit to the mechanism shown in Scheme 10.
(§3) where E, S, ES, P, I, and EI are the concentrations of the enzyme, nitrocefin, the enzyme-nitrocefin complex, the nitrocefin hydrolysis product, INHIBITOR, and the enzyme-INHIBITOR complex respectively. […] The values of k+2, k+3, and k−3 were fit. Concentration series offsets of the absorbance measurements were used to correct for slight absorbance baseline differences between wells. The parameter k+3 is equivalent to the second order rate constant kinact/Ki. In some cases, the inhibition was in rapid equilibrium on the experimental time scale, so that only the ratio k−3/k+3=Ki could be determined. Although k−3 represents reversal of inhibitor binding in Scheme 10, hydrolysis of the enzyme-inhibitor complex could not be excluded based on kinetic measurements.
(§4) Best-fit absorbance values from the above procedure at each time point for each compound concentration were exported to Excel.
(§5) where A is the best-fit absorbance without inhibitor and Ainhib is the best-fit absorbance in the presence of the inhibitor.
(§6) where [I] is the inhibitor concentration and n is the Hill coefficient. The Excel add-in XLfit (ID Business Solutions) was used for nonlinear regression.

[2] = molecular target: OXA-48 (Class D beta-lactamase) (Klebsiella pneumoniae, UniProt Q6XEC0); assay: Inhibition of beta-lactamase enzymes (nitrocefin hydrolysis), OXA-48; format: biochemical; conditions: read-out: Class D OXA-48 60 min IC50, nitrocefin 100 μM
Experimental: as §1, §2, §3, §4, §5, §6

Sequence of OXA-48 (Class D beta-lactamase) (Q6XEC0 whole entry, looked up, species assumed): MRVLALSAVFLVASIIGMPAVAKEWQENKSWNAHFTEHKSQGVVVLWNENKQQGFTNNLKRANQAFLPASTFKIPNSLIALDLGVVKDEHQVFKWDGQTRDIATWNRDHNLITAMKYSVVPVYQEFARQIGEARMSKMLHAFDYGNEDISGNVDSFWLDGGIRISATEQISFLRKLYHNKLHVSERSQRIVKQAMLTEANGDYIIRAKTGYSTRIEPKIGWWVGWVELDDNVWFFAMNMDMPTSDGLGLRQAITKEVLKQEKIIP
Sequence of TEM-1 (Class A beta-lactamase) (P62593 whole entry, looked up, species assumed): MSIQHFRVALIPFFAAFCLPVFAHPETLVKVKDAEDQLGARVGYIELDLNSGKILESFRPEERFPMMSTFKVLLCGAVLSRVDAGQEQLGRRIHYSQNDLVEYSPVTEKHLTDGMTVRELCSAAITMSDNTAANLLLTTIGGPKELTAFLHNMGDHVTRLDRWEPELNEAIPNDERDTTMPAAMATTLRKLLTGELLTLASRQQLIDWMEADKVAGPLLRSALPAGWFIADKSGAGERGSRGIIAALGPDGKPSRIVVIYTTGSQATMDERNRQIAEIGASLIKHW

Compound | IC50 [1] [nM] | IC50 [2] [nM]
CC1=C[C@@H]2CN(C(=O)N2O[C@@H](F)C(=O)O)[C@@H]1C(=O)NCC[C@@H]1CCC(=O)N1 [Example 73, (2S)-2-fluoro-2-[[(2S,5R)-3-methyl-7-oxo-2-[2-(5-oxopyrrolidin-2-yl)ethylcarbamoyl]-1,6-diazabicyclo[3.2.1]oct-3-en-6-yl]oxy]acetic acid lithium salt] | 730 | 530
CC1=C[C@@H]2CN(C(=O)N2O[C@@H](F)C(=O)O)[C@@H]1C(=O)NCCNS(C)(=O)=O [Example 67, (2S)-2-fluoro-2-[[(2S,5R)-2-[2-(methanesulfonamido)ethylcarbamoyl]-3-methyl-7-oxo-1,6-diazabicyclo[3.2.1]oct-3-en-6-yl]oxy]acetic acid lithium salt] | 64 | 340
CC1=C[C@@H]2CN(C(=O)N2O[C@@H](F)C(=O)O)[C@@H]1C(=O)NCCC(N)=O [Example 71, (2S)-2-[[(2S,5R)-2-[(3-amino-3-oxo-propyl)carbamoyl]-3-methyl-7-oxo-1,6-diazabicyclo[3.2.1]oct-3-en-6-yl]oxy]-2-fluoro-acetic acid lithium salt] | 110 | 75
CC1=C[C@@H]2CN(C(=O)N2O[C@@H](F)C(=O)O)[C@@H]1C(=O)NOC[C@@H]1CC(F)(F)CN1 [Example 63, (2S)-2-(((2S,5R)-2-((((S)-4,4-difluoropyrrolidin-2-yl)methoxy)carbamoyl)-3-methyl-7-oxo-1,6-diazabicyclo[3.2.1]oct-3-en-6-yl)oxy)-2-fluoroacetic acid TFA salt] | 110 | 230
CC1=C[C@@H]2CN(C(=O)N2O[C@@H](F)C(=O)O)[C@@H]1CN [Example 77, (2S)-2-[[(2S,5R)-2-(aminomethyl)-3-methyl-7-oxo-1,6-diazabicyclo[3.2.1]oct-3-en-6-yl]oxy]-2-fluoro-acetic acid] | > 100000 | > 100000
CC1=C[C@@H]2CN(C(=O)N2O[C@@H](F)C(=O)O)[C@@H]1C(=O)NCCCS(N)(=O)=O [Example 74, (2S)-2-fluoro-2-[[(2S,5R)-3-methyl-7-oxo-2-(3-sulfamoylpropylcarbamoyl)-1,6-diazabicyclo[3.2.1]oct-3-en-6-yl]oxy]acetic acid lithium salt] | 280 | 590
CC1=C[C@@H]2CN(C(=O)N2O[C@@H](F)C(=O)O)[C@@H]1C(=O)NOCCS(N)(=O)=O [Example 56, (2S)-2-fluoro-2-[[(2S,5R)-3-methyl-7-oxo-2-(2-sulfamoylethoxycarbamoyl)-1,6-diazabicyclo[3.2.1]oct-3-en-6-yl]oxy]acetic acid lithium salt] | 93 | 220
CC1=C[C@@H]2CN(C(=O)N2O[C@@H](F)C(=O)O)[C@@H]1C(=O)NCCS(N)(=O)=O [Example 57, (2S)-2-fluoro-2-[[(2S,5R)-3-methyl-7-oxo-2-(2-sulfamoylethylcarbamoyl)-1,6-diazabicyclo[3.2.1]oct-3-en-6-yl]oxy]acetic acid lithium salt] | 57 | 410
CC1=C[C@@H]2CN(C(=O)N2O[C@@H](F)C(=O)O)[C@@H]1C(=O)NC1COC1 [Example 66, (2S)-2-fluoro-2-[[(2S,5R)-3-methyl-2-(oxetan-3-ylcarbamoyl)-7-oxo-1,6-diazabicyclo[3.2.1]oct-3-en-6-yl]oxy]acetic acid lithium salt] | 660 | 12
NC(=O)[C@@H]1C(C2CC2)=C[C@@H]2CN1C(=O)N2O[C@H](F)C(=O)O [Example 41, (2R)-2-(((2S,5R)-2-carbamoyl-3-cyclopropyl-7-oxo-1,6-diazabicyclo[3.2.1]oct-3-en-6-yl)oxy)-2-fluoroacetic acid lithium salt] | 3.5 | 6.4
CC1=C[C@@H]2CN(C(=O)N2OC(C)(F)C(=O)O)[C@@H]1C(N)=O (mixture of isomers) [Example 11, 2-{[(2S,5R)-2-carbamoyl-3-methyl-7-oxo-1,6-diazabicyclo[3.2.1]oct-3-en-6-yl]oxy}-2-fluoropropanoic acid lithium salt (mixture of diastereomers)] | 230 | 22000
CC1=C[C@@H]2CN(C(=O)N2O[C@@H](F)C(=O)O)[C@@H]1C(=O)NCNS(N)(=O)=O [Example 89, lithium salt] | 33 | 150
CC1=C[C@@H]2CN(C(=O)N2OCC(=O)O)[C@@H]1C(N)=O [Example 10, {[(2S,5R)-2-carbamoyl-3-methyl-7-oxo-1,6-diazabicyclo[3.2.1]oct-3-en-6-yl]oxy}acetic acid lithium salt] | 430 | 51
CC1=C[C@@H]2CN(C(=O)N2O[C@@H](F)C(=O)O)[C@@H]1C(=O)NOC[C@@H]1CCC(=O)N1 [Example 72, (2S)-2-fluoro-2-[[(2S,5R)-3-methyl-7-oxo-2-[(5-oxopyrrolidin-2-yl)methoxycarbamoyl]-1,6-diazabicyclo[3.2.1]oct-3-en-6-yl]oxy]acetic acid lithium salt] | 77 | 110
CC(=O)NC[C@@H]1C(C)=C[C@@H]2CN1C(=O)N2O[C@@H](F)C(=O)O [Example 78, (2S)-2-[[(2S,5R)-2-(acetamidomethyl)-3-methyl-7-oxo-1,6-diazabicyclo[3.2.1]oct-3-en-6-yl]oxy]-2-fluoro-acetic acid lithium salt] | 3600 | 690
O=C(O)C(F)ON1C(=O)N2C[C@H]1CC[C@H]2C(=O)NC1CCNCC1 (stereo partly drawn) [Comparator 99, reference compound] | 30 | 82000
CC1=C[C@@H]2CN(C(=O)N2OC(F)C(=O)O)[C@@H]1c1nnc(C(N)=O)o1 (stereo partly drawn) [Example 55, 2-[[(2S,5R)-2-(5-carbamoyl-1,3,4-oxadiazol-2-yl)-3-methyl-7-oxo-1,6-diazabicyclo[3.2.1]oct-3-en-6-yl]oxy]-2-fluoro-acetic acid lithium salt] | 24 | 7.3
NC(=O)[C@@H]1C(C2CC2)=C[C@@H]2CN1C(=O)N2OC(F)C(=O)O (stereo in doubt) [Example 42, (2R)-2-(((2S,5R)-2-carbamoyl-3-cyclopropyl-7-oxo-1,6-diazabicyclo[3.2.1]oct-3-en-6-yl)oxy)-2-fluoroacetic acid lithium salt] | 24 | 5.2
CC1=C[C@@H]2CN(C(=O)N2O[C@@H](F)C(=O)O)[C@@H]1C(=O)NCO [Example 87, (2S)-2-fluoro-2-[[(2S,5R)-2-(hydroxymethylcarbamoyl)-3-methyl-7-oxo-1,6-diazabicyclo[3.2.1]oct-3-en-6-yl]oxy]acetic acid lithium salt] | 150 | 11
CC(=O)NCNC(=O)[C@@H]1C(C)=C[C@@H]2CN1C(=O)N2O[C@@H](F)C(=O)O [Example 88, (2S)-2-fluoro-2-[[(2S,5R)-2-(acetamidomethylcarbamoyl)-3-methyl-7-oxo-1,6-diazabicyclo[3.2.1]oct-3-en-6-yl]oxy]acetic acid lithium salt] | 54 | 45
NC(=O)[C@@H]1CC[C@@H]2CN1C(=O)N2O[C@H](F)C(=O)O [Comparator 98, reference compound] | 1.3 | 2600

— patent US10800778B2 (Entasis Therapeutics Limited, priority 2016, dated 2020)
